According to patent US20020137929A1, “1 - (3-heterocyclylphenyl) isothiourea, -isourea, -guanidine and -amidine herbicidal agents” (Intellectual Property Department, BASF Aktiengesellschaft, priority 1998, published 2002):

How the values were obtained:
[1] = tested on: AMBEL (Ragweed, Common); assay: Postemergence herbicidal evaluation; assay type: in vivo, Ambrosia artemisifolia; conditions: postemergence
Summary of the method: (§1)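 ~2-wk seedlings; postemergence spray, 40 psi; vehicle 1:1 acetone:water + 0.5% Tween 20; rate ≈0.0156–0.500 kg/ha; greenhouse hold; scored 4–5 wk after treatment, 0–9 scale vs control; repeat tests averaged.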

[2] = tested on: SAGPY (Arrowhead (Pygmaea)); assay: Preemergence weed control under flooded paddy conditions; assay type: in vivo, Sagittaria pygmaea; conditions: rated 3-4 weeks after treatment
Summary of the method: (§2)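 Greenhouse paddy assay. Acetone/water (50/50 v/v) solutions dosed into flood water, equivalent to about 0.0313 to 0.500 kg/ha active ingredient, over seeds planted 0.5 cm deep in silt loam. Score: 0-9 visual, based on stand, vigor, malformation, size and chlorosis, 3 to 4 weeks after treatment.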

[3] = tested on: ZEAMX (Corn, Field); assay: Postemergence herbicidal evaluation; assay type: in vivo, Zea mays; conditions: postemergence
Summary of the method: as §1

[4] = tested on: CASOB (Sicklepod); assay: Preemergence herbicidal evaluation; assay type: in vivo, Cassia obtusifolia; conditions: rated 4-5 weeks after treatment, rating scale 0-9
Summary of the method: (§3)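 Visual 0-9 rating vs control (stand, vigor, malformation, size, chlorosis, overall appearance), scored 4-5 wk after spraying. Seeded soil cups were treated preemergence with compound in aqueous acetone, ~0.0156-0.500 kg/ha equivalent.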

[5] = tested on: GLXMAW (Soybean, Williams); assay: Postemergence herbicidal evaluation; assay type: in vivo, Glycine max, (L.) Merr. cv Williams; conditions: postemergence
Summary of the method: as §1

[6] = tested on: AMBEL (Ragweed, Common); assay: Preemergence herbicidal evaluation; assay type: in vivo, Ambrosia artemisifolia; conditions: rated 4-5 weeks after treatment, rating scale 0-9
Summary of the method: as §3

[7] = tested on: GALAP (Galium); assay: Preemergence herbicidal evaluation; assay type: in vivo, Galium aparine; conditions: rated 4-5 weeks after treatment, rating scale 0-9
Summary of the method: as §3

[8] = tested on: ABUTH (Velvetleaf); assay: Preemergence herbicidal evaluation; assay type: in vivo, Abutilon theophrasti; conditions: rated 4-5 weeks after treatment, rating scale 0-9
Summary of the method: as §3

[9] = tested on: GLXMAW (Soybean, Williams); assay: Preemergence herbicidal evaluation; assay type: in vivo, Glycine max, (L.) Merr. cv Williams; conditions: rated 4-5 weeks after treatment, rating scale 0-9
Summary of the method: as §3

[10] = tested on: ECHCG (Barnyardgrass); assay: Preemergence herbicidal evaluation; assay type: in vivo, Echinochloa crus-galli; conditions: rated 4-5 weeks after treatment, rating scale 0-9
Summary of the method: as §3

[11] = tested on: CYPSE (Flatsedge); assay: Preemergence weed control under flooded paddy conditions; assay type: in vivo, Cyperus serotinus; conditions: rated 3-4 weeks after treatment
Summary of the method: as §2

[12] = tested on: SETVI (Foxtail, Green); assay: Preemergence herbicidal evaluation; assay type: in vivo, Setaria viridis; conditions: rated 4-5 weeks after treatment, rating scale 0-9
Summary of the method: as §3

[13] = tested on: IPOHE (Morningglory, Ivyleaf); assay: Postemergence herbicidal evaluation; assay type: in vivo, Ipomoea hederacea; conditions: postemergence
Summary of the method: as §1

Cn1c(C(F)(F)F)cc(=O)n(-c2cc(N=C3SCC(=O)N3C3CC3)c(Cl)cc2F)c1=O [Compound 152, 3-{4-Chloro-5-[(3-cyclopropyl-4-oxo-2-thiazolidinylidene)amino]-2-fluorophenyl}-1-methyl-6-(trifluoromethyl)-2,4(1H,3H)-pyrimidinedione]
9.0: herbicidal rating AMBEL ([1]; rate 0.0625 kg/ha) | Preemergence herbicidal rating ABUTH ([8]; rate 0.1250 kg/ha) | Preemergence herbicidal rating ABUTH ([8]; rate 0.2500 kg/ha) | Preemergence herbicidal rating SETVI ([12]; rate 0.2500 kg/ha) | herbicidal rating IPOHE ([13]; rate 0.0313 kg/ha) | herbicidal rating IPOHE ([13]; rate 0.0625 kg/ha)
2.0: herbicidal rating AMBEL ([1]; rate 0.0156 kg/ha) | Preemergence herbicidal rating AMBEL ([6]; rate 0.1250 kg/ha) | Preemergence herbicidal rating GLXMAW ([9]; rate 0.0625 kg/ha) | Preemergence herbicidal rating GLXMAW ([9]; rate 0.1250 kg/ha) | Preemergence herbicidal rating GLXMAW ([9]; rate 0.2500 kg/ha)
6.5: herbicidal rating ZEAMX ([3]; rate 0.0625 kg/ha)
3.0: Preemergence herbicidal rating CASOB ([4]; rate 0.2500 kg/ha)
4.0: herbicidal rating AMBEL ([1]; rate 0.0313 kg/ha) | herbicidal rating ZEAMX ([3]; rate 0.0156 kg/ha) | herbicidal rating GLXMAW ([5]; rate 0.0156 kg/ha)
1.0: Preemergence herbicidal rating CASOB ([4]; rate 0.0625 kg/ha) | Preemergence herbicidal rating GALAP ([7]; rate 0.1250 kg/ha) | Preemergence herbicidal rating ECHCG ([10]; rate 0.1250 kg/ha) | Preemergence herbicidal rating ECHCG ([10]; rate 0.2500 kg/ha) | Preemergence herbicidal rating SETVI ([12]; rate 0.0625 kg/ha) | Preemergence herbicidal rating SETVI ([12]; rate 0.1250 kg/ha)
7.0: herbicidal rating IPOHE ([13]; rate 0.0156 kg/ha)
4.5: herbicidal rating GLXMAW ([5]; rate 0.0313 kg/ha)
5.0: herbicidal rating ZEAMX ([3]; rate 0.0313 kg/ha)
0.0: herbicidal effect rating, SAGPY ([2]; 0.0625 kg/ha) | herbicidal effect rating, SAGPY ([2]; 0.1250 kg/ha) | herbicidal effect rating, SAGPY ([2]; 0.2500 kg/ha) | Preemergence herbicidal rating CASOB ([4]; rate 0.0313 kg/ha) | Preemergence herbicidal rating CASOB ([4]; rate 0.1250 kg/ha) | Preemergence herbicidal rating AMBEL ([6]; rate 0.0313 kg/ha) | Preemergence herbicidal rating AMBEL ([6]; rate 0.0625 kg/ha) | Preemergence herbicidal rating GALAP ([7]; rate 0.0313 kg/ha) | Preemergence herbicidal rating GALAP ([7]; rate 0.0625 kg/ha) | Preemergence herbicidal rating ABUTH ([8]; rate 0.0313 kg/ha) | Preemergence herbicidal rating ABUTH ([8]; rate 0.0625 kg/ha) | Preemergence herbicidal rating GLXMAW ([9]; rate 0.0313 kg/ha) | Preemergence herbicidal rating ECHCG ([10]; rate 0.0313 kg/ha) | Preemergence herbicidal rating ECHCG ([10]; rate 0.0625 kg/ha) | herbicidal effect rating, CYPSE ([11]; 0.0625 kg/ha) | herbicidal effect rating, CYPSE ([11]; 0.1250 kg/ha) | herbicidal effect rating, CYPSE ([11]; 0.2500 kg/ha) | Preemergence herbicidal rating SETVI ([12]; rate 0.0313 kg/ha)
6.0: herbicidal rating GLXMAW ([5]; rate 0.0625 kg/ha) | Preemergence herbicidal rating AMBEL ([6]; rate 0.2500 kg/ha) | Preemergence herbicidal rating GALAP ([7]; rate 0.2500 kg/ha)

Cn1c(C(F)(F)F)cc(=O)n(-c2cc(N=C3SCC(=O)N3Cc3ccc(Br)cc3)c(Cl)cc2F)c1=O [Compound 148, 3-{5-{[3-(p-Bromobenzyl)-4-oxo-2-thiazolidinyl-idene]amino}-4-chloro-2-fluorophenyl}-1-methyl-6-(trifluoromethyl)-2,4(1H,3H)-pyrimidinedione]
5.0: herbicidal rating ZEAMX ([3]; rate 0.0625 kg/ha) | herbicidal rating GLXMAW ([5]; rate 0.0313 kg/ha) | herbicidal effect rating, CYPSE ([11]; 0.2500 kg/ha) | Preemergence herbicidal rating SETVI ([12]; rate 0.2500 kg/ha)
4.0: herbicidal effect rating, SAGPY ([2]; 0.1250 kg/ha) | herbicidal effect rating, SAGPY ([2]; 0.2500 kg/ha) | herbicidal rating ZEAMX ([3]; rate 0.0156 kg/ha) | herbicidal rating ZEAMX ([3]; rate 0.0313 kg/ha) | Preemergence herbicidal rating AMBEL ([6]; rate 0.2500 kg/ha) | Preemergence herbicidal rating ABUTH ([8]; rate 0.1250 kg/ha) | Preemergence herbicidal rating ABUTH ([8]; rate 0.2500 kg/ha)
4.5: herbicidal rating GLXMAW ([5]; rate 0.0156 kg/ha)
6.5: herbicidal rating GLXMAW ([5]; rate 0.0625 kg/ha)
9.0: herbicidal rating AMBEL ([1]; rate 0.0156 kg/ha) | herbicidal rating AMBEL ([1]; rate 0.0625 kg/ha) | herbicidal rating IPOHE ([13]; rate 0.0156 kg/ha) | herbicidal rating IPOHE ([13]; rate 0.0313 kg/ha) | herbicidal rating IPOHE ([13]; rate 0.0625 kg/ha)
0.0: herbicidal effect rating, SAGPY ([2]; 0.0313 kg/ha) | Preemergence herbicidal rating CASOB ([4]; rate 0.0313 kg/ha) | Preemergence herbicidal rating CASOB ([4]; rate 0.0625 kg/ha) | Preemergence herbicidal rating CASOB ([4]; rate 0.1250 kg/ha) | Preemergence herbicidal rating CASOB ([4]; rate 0.2500 kg/ha) | Preemergence herbicidal rating AMBEL ([6]; rate 0.0313 kg/ha) | Preemergence herbicidal rating AMBEL ([6]; rate 0.0625 kg/ha) | Preemergence herbicidal rating AMBEL ([6]; rate 0.1250 kg/ha) | Preemergence herbicidal rating GALAP ([7]; rate 0.0313 kg/ha) | Preemergence herbicidal rating GALAP ([7]; rate 0.0625 kg/ha) | Preemergence herbicidal rating GALAP ([7]; rate 0.1250 kg/ha) | Preemergence herbicidal rating GALAP ([7]; rate 0.2500 kg/ha) | Preemergence herbicidal rating ABUTH ([8]; rate 0.0313 kg/ha) | Preemergence herbicidal rating GLXMAW ([9]; rate 0.0313 kg/ha) | Preemergence herbicidal rating GLXMAW ([9]; rate 0.0625 kg/ha) | Preemergence herbicidal rating GLXMAW ([9]; rate 0.1250 kg/ha) | Preemergence herbicidal rating GLXMAW ([9]; rate 0.2500 kg/ha) | Preemergence herbicidal rating ECHCG ([10]; rate 0.0313 kg/ha) | Preemergence herbicidal rating ECHCG ([10]; rate 0.0625 kg/ha) | Preemergence herbicidal rating ECHCG ([10]; rate 0.1250 kg/ha) | Preemergence herbicidal rating ECHCG ([10]; rate 0.2500 kg/ha) | herbicidal effect rating, CYPSE ([11]; 0.0313 kg/ha) | herbicidal effect rating, CYPSE ([11]; 0.1250 kg/ha) | Preemergence herbicidal rating SETVI ([12]; rate 0.0625 kg/ha) | Preemergence herbicidal rating SETVI ([12]; rate 0.1250 kg/ha)
7.0: herbicidal rating AMBEL ([1]; rate 0.0313 kg/ha)
3.0: herbicidal effect rating, SAGPY ([2]; 0.0625 kg/ha)
1.0: Preemergence herbicidal rating ABUTH ([8]; rate 0.0625 kg/ha) | Preemergence herbicidal rating SETVI ([12]; rate 0.0313 kg/ha)

COc1cccc(CN2C(=O)CSC2=Nc2cc(-n3c(=O)cc(C(F)(F)F)n(C)c3=O)c(F)cc2Cl)c1 [Compound 137, 3-{4-Chloro-2-fluoro-5-{[3-(m-methoxybenzyl)-4-oxo-2-thiazolidinylidene]amino}phenyl}-1-methyl-6-(trifluoromethyl)-2,4(1H,3H)-pyrimidinedione]
4.0: herbicidal rating ZEAMX ([3]; rate 0.0156 kg/ha) | herbicidal rating ZEAMX ([3]; rate 0.0313 kg/ha) | herbicidal rating ZEAMX ([3]; rate 0.0625 kg/ha)
5.5: herbicidal rating GLXMAW ([5]; rate 0.0313 kg/ha) | herbicidal rating GLXMAW ([5]; rate 0.0625 kg/ha)
0.0: herbicidal effect rating, SAGPY ([2]; 0.0313 kg/ha) | herbicidal effect rating, SAGPY ([2]; 0.0625 kg/ha) | herbicidal effect rating, SAGPY ([2]; 0.1250 kg/ha) | Preemergence herbicidal rating CASOB ([4]; rate 0.0625 kg/ha) | Preemergence herbicidal rating CASOB ([4]; rate 0.1250 kg/ha) | Preemergence herbicidal rating CASOB ([4]; rate 0.2500 kg/ha) | Preemergence herbicidal rating AMBEL ([6]; rate 0.0625 kg/ha) | Preemergence herbicidal rating AMBEL ([6]; rate 0.1250 kg/ha) | Preemergence herbicidal rating GALAP ([7]; rate 0.0625 kg/ha) | Preemergence herbicidal rating GALAP ([7]; rate 0.1250 kg/ha) | Preemergence herbicidal rating GALAP ([7]; rate 0.2500 kg/ha) | Preemergence herbicidal rating ABUTH ([8]; rate 0.0625 kg/ha) | Preemergence herbicidal rating ABUTH ([8]; rate 0.1250 kg/ha) | Preemergence herbicidal rating GLXMAW ([9]; rate 0.0625 kg/ha) | Preemergence herbicidal rating GLXMAW ([9]; rate 0.1250 kg/ha) | Preemergence herbicidal rating ECHCG ([10]; rate 0.0625 kg/ha) | Preemergence herbicidal rating ECHCG ([10]; rate 0.1250 kg/ha) | Preemergence herbicidal rating ECHCG ([10]; rate 0.2500 kg/ha) | herbicidal effect rating, CYPSE ([11]; 0.0313 kg/ha) | herbicidal effect rating, CYPSE ([11]; 0.0625 kg/ha) | herbicidal effect rating, CYPSE ([11]; 0.1250 kg/ha) | herbicidal effect rating, CYPSE ([11]; 0.2500 kg/ha) | Preemergence herbicidal rating SETVI ([12]; rate 0.0625 kg/ha) | Preemergence herbicidal rating SETVI ([12]; rate 0.1250 kg/ha)
7.0: Preemergence herbicidal rating AMBEL ([6]; rate 0.2500 kg/ha)
1.0: Preemergence herbicidal rating GLXMAW ([9]; rate 0.2500 kg/ha)
6.0: herbicidal rating GLXMAW ([5]; rate 0.0156 kg/ha)
2.0: Preemergence herbicidal rating SETVI ([12]; rate 0.2500 kg/ha)
9.0: herbicidal rating AMBEL ([1]; rate 0.0156 kg/ha) | herbicidal rating AMBEL ([1]; rate 0.0313 kg/ha) | herbicidal rating AMBEL ([1]; rate 0.0625 kg/ha) | Preemergence herbicidal rating ABUTH ([8]; rate 0.2500 kg/ha) | herbicidal rating IPOHE ([13]; rate 0.0156 kg/ha) | herbicidal rating IPOHE ([13]; rate 0.0313 kg/ha) | herbicidal rating IPOHE ([13]; rate 0.0625 kg/ha)
3.0: herbicidal effect rating, SAGPY ([2]; 0.2500 kg/ha)
